In patent US20250171457A1, “NITROGEN-CONTAINING HETEROCYCLIC COMPOUND HAVING NRF2 ACTIVATION EFFECT” (CHUGAI SEIYAKU KABUSHIKI KAISHA, priority 2022, published 2025):

Test system: Nrf2 transcriptional activity (pARE-Luc reporter) in HepG2 cells
Assay: In vitro Nrf2 transcriptional activity measurement by ARE-dependent reporter assay in HepG2 cell
Assay type: cell-based, human
Conditions: Homo sapiens; HepG2 cells transfected with pARE-Luc, 4 hours at 37° C.; luciferase activity of Example 1-54 or Example 17-23 at 3.75 μM defined as 100%
Procedure, shortened: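 Luminescence readout (Bright-Glo) after 4 h, 37° C compound exposure of HepG2 cells carrying the ARE-luciferase vector pGL4.37. Each well converted to % response versus reference compound at 3.75 μM, and EC50 derived from dose-response curves.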

| Compound | EC50 [nM] |
| --- | --- |
| CN1CCn2ncc(-c3cc(Cl)c(C(=O)N4COc5c(cccc5-c5cc(N6C7CCC6COC7)c(C(=O)O)cc5F)C4)c(Cl)c3)c2C1 [Compound 3-2, 4-[3-[2,6-Dichloro-4-(5-methyl-6,7-dihydro-4H-pyrazolo[1,5-a]pyrazin-3-yl)benzoyl]-2,4-dihydro-1,3-benzoxazin-8-yl]-5-fluoro-2-(3-oxa-8-azabicyclo[3.2.1]octan-8-yl)benzoic acid] | 6.8 |
| COc1ccc(-c2cc(Cl)c(C(=O)N3COc4c(cccc4-c4cc(N5C6CCC5COC6)c(C(=O)O)cc4F)C3)c(Cl)c2)nn1 [Compound 3-3, 4-[3-[2,6-Dichloro-4-(6-methoxypyridazin-3-yl)benzoyl]-2,4-dihydro-1,3-benzoxazin-8-yl]-5-fluoro-2-(3-oxa-8-azabicyclo[3.2.1]octan-8-yl)benzoic acid] | 9.4 |
| Cn1nnc2c(-c3cc(Cl)c(C(=O)N4COc5c(cccc5-c5cc(N6C7CCC6COC7)c(C(=O)O)cc5F)C4)c(Cl)c3)cccc21 [Compound 3-4, 4-[3-[2,6-Dichloro-4-(1-methylbenzotriazol-4-yl)benzoyl]-2,4-dihydro-1,3-benzoxazin-8-yl]-5-fluoro-2-(3-oxa-8-azabicyclo[3.2.1]octan-8-yl)benzoic acid] | 6.2 |
| Cn1ncc2c(-c3cc(Cl)c(C(=O)N4COc5c(cccc5-c5cc(N6C7CCC6COC7)c(C(=O)O)cc5F)C4)c(Cl)c3)cncc21 [Compound 3-5, 4-[3-[2,6-Dichloro-4-(1-methylpyrazolo[3,4-c]pyridin-4-yl)benzoyl]-2,4-dihydro-1,3-benzoxazin-8-yl]-5-fluoro-2-(3-oxa-8-azabicyclo[3.2.1]octan-8-yl)benzoic acid] | 6.9 |
| Cn1cc2cncc(-c3cc(Cl)c(C(=O)N4COc5c(cccc5-c5cc(N6C7CCC6COC7)c(C(=O)O)cc5F)C4)c(Cl)c3)c2n1 [Compound 3-6, 4-[3-[2,6-Dichloro-4-(2-methylpyrazolo[4,3-c]pyridin-7-yl)benzoyl]-2,4-dihydro-1,3-benzoxazin-8-yl]-5-fluoro-2-(3-oxa-8-azabicyclo[3.2.1]octan-8-yl)benzoic acid] | 9 |
| Cn1ncc2c(-c3cc(Cl)c(C(=O)N4COc5c(cccc5-c5cc(N6C7CCC6COC7)c(C(=O)O)cc5F)C4)c(Cl)c3)cccc21 [Compound 3-7, 4-[3-[2,6-Dichloro-4-(1-methylindazol-4-yl)benzoyl]-2,4-dihydro-1,3-benzoxazin-8-yl]-5-fluoro-2-(3-oxa-8-azabicyclo[3.2.1]octan-8-yl)benzoic acid] | 9.6 |
| Cc1nc2c(-c3cc(Cl)c(C(=O)N4COc5c(cccc5-c5cc(N6C7CCC6COC7)c(C(=O)O)cc5F)C4)c(Cl)c3)cncc2n1C [Compound 3-8, 4-[3-[2,6-Dichloro-4-(2,3-dimethylimidazo[4,5-c]pyridin-7-yl)benzoyl]-2,4-dihydro-1,3-benzoxazin-8-yl]-5-fluoro-2-(3-oxa-8-azabicyclo[3.2.1]octan-8-yl)benzoic acid] | 17 |
| Cn1nnc2cc(-c3cc(Cl)c(C(=O)N4COc5c(cccc5-c5cc(N6C7CCC6COC7)c(C(=O)O)cc5F)C4)c(Cl)c3)cnc21 [Compound 3-9, 4-[3-[2,6-Dichloro-4-(3-methyltriazolo[4,5-b]pyridin-6-yl)benzoyl]-2,4-dihydro-1,3-benzoxazin-8-yl]-5-fluoro-2-(3-oxa-8-azabicyclo[3.2.1]octan-8-yl)benzoic acid] | 10 |
| Cn1nc2cncc(-c3cc(Cl)c(C(=O)N4COc5c(cccc5-c5cc(N6C7CCC6COC7)c(C(=O)O)cc5F)C4)c(Cl)c3)c2n1 [Compound 3-10, 4-[3-[2,6-Dichloro-4-(2-methyltriazolo[4,5-c]pyridin-7-yl)benzoyl]-2,4-dihydro-1,3-benzoxazin-8-yl]-5-fluoro-2-(3-oxa-8-azabicyclo[3.2.1]octan-8-yl)benzoic acid] | 4.7 |
| Cn1nnc2c(-c3cc(Cl)c(C(=O)N4COc5c(cccc5-c5cc(N6C7CCC6COC7)c(C(=O)O)cc5F)C4)c(Cl)c3)cncc21 [Compound 3-11, 4-[3-[2,6-Dichloro-4-(3-methyltriazolo[4,5-c]pyridin-7-yl)benzoyl]-2,4-dihydro-1,3-benzoxazin-8-yl]-5-fluoro-2-(3-oxa-8-azabicyclo[3.2.1]octan-8-yl)benzoic acid] | 5.7 |
| Cn1cc2cc(-c3cc(Cl)c(C(=O)N4COc5c(cccc5-c5cc(N6C7CCC6COC7)c(C(=O)O)cc5F)C4)c(Cl)c3)ccc2n1 [Compound 3-12, 4-[3-[2,6-Dichloro-4-(2-methylindazol-5-yl)benzoyl]-2,4-dihydro-1,3-benzoxazin-8-yl]-5-fluoro-2-(3-oxa-8-azabicyclo[3.2.1]octan-8-yl)benzoic acid] | 8.7 |
| Cn1cc2nc(-c3cc(Cl)c(C(=O)N4COc5c(cccc5-c5cc(N6C7CCC6COC7)c(C(=O)O)cc5F)C4)c(Cl)c3)ccc2n1 [Compound 3-13, 4-[3-[2,6-Dichloro-4-(2-methylpyrazolo[4,3-b]pyridin-5-yl)benzoyl]-2,4-dihydro-1,3-benzoxazin-8-yl]-5-fluoro-2-(3-oxa-8-azabicyclo[3.2.1]octan-8-yl)benzoic acid] | 9.7 |
| Cn1ncc2cc(-c3cc(Cl)c(C(=O)N4COc5c(cccc5-c5cc(N6C7CCC6COC7)c(C(=O)O)cc5F)C4)c(Cl)c3)cnc21 [Compound 3-14, 4-[3-[2,6-Dichloro-4-(1-methylpyrazolo[3,4-b]pyridin-5-yl)benzoyl]-2,4-dihydro-1,3-benzoxazin-8-yl]-5-fluoro-2-(3-oxa-8-azabicyclo[3.2.1]octan-8-yl)benzoic acid] | 8.8 |
| Cn1ncc2cc(-c3cc(Cl)c(C(=O)N4COc5c(cccc5-c5cc(N6C7CCC6COC7)c(C(=O)O)cc5F)C4)c(Cl)c3)ccc21 [Compound 3-15, 4-[3-[2,6-Dichloro-4-(1-methylindazol-5-yl)benzoyl]-2,4-dihydro-1,3-benzoxazin-8-yl]-5-fluoro-2-(3-oxa-8-azabicyclo[3.2.1]octan-8-yl)benzoic acid] | 8.4 |
| Cn1ncc2c(-c3cc(Cl)c(C(=O)N4COc5c(cccc5-c5cc(N6C7CCC6COC7)c(C(=O)O)cc5F)C4)c(Cl)c3)ccnc21 [Compound 3-16, 4-[3-[2,6-Dichloro-4-(1-methylpyrazolo[3,4-b]pyridin-4-yl)benzoyl]-2,4-dihydro-1,3-benzoxazin-8-yl]-5-fluoro-2-(3-oxa-8-azabicyclo[3.2.1]octan-8-yl)benzoic acid] | 11 |
| Cn1nc2nccc(-c3cc(Cl)c(C(=O)N4COc5c(cccc5-c5cc(N6C7CCC6COC7)c(C(=O)O)cc5F)C4)c(Cl)c3)c2n1 [Compound 3-17, 4-[3-[2,6-Dichloro-4-(2-methyltriazolo[4,5-b]pyridin-7-yl)benzoyl]-2,4-dihydro-1,3-benzoxazin-8-yl]-5-fluoro-2-(3-oxa-8-azabicyclo[3.2.1]octan-8-yl)benzoic acid] | 12 |
| O=C(O)c1cc(F)c(-c2cccc3c2OCN(C(=O)c2c(Cl)cc(-c4ccn5cncc5c4)cc2Cl)C3)cc1N1C2CCC1COC2 [Compound 3-18, 4-[3-(2,6-Dichloro-4-imidazo[1,5-a]pyridin-7-ylbenzoyl)-2,4-dihydro-1,3-benzoxazin-8-yl]-5-fluoro-2-(3-oxa-8-azabicyclo[3.2.1]octan-8-yl)benzoic acid] | 20 |
